Results as given in patent EP0918774B9, “ANDROGEN RECEPTOR MODULATOR COMPOUNDS AND METHODS” (LIGAND PHARMACEUTICALS INCORPORATED, priority 1996, dated 1997).
Like-named read-outs stand apart in the source and are kept apart here.

Tests used:
MR = target: T1, MR (Homo sapiens, UniProt P08235); experiment: Co-transfection assay, MR antagonist mode; format: cell-based
T1 construct: expressed in transfected cells; host or cells: CV-1 cells
T1 sequence (P08235 1-984): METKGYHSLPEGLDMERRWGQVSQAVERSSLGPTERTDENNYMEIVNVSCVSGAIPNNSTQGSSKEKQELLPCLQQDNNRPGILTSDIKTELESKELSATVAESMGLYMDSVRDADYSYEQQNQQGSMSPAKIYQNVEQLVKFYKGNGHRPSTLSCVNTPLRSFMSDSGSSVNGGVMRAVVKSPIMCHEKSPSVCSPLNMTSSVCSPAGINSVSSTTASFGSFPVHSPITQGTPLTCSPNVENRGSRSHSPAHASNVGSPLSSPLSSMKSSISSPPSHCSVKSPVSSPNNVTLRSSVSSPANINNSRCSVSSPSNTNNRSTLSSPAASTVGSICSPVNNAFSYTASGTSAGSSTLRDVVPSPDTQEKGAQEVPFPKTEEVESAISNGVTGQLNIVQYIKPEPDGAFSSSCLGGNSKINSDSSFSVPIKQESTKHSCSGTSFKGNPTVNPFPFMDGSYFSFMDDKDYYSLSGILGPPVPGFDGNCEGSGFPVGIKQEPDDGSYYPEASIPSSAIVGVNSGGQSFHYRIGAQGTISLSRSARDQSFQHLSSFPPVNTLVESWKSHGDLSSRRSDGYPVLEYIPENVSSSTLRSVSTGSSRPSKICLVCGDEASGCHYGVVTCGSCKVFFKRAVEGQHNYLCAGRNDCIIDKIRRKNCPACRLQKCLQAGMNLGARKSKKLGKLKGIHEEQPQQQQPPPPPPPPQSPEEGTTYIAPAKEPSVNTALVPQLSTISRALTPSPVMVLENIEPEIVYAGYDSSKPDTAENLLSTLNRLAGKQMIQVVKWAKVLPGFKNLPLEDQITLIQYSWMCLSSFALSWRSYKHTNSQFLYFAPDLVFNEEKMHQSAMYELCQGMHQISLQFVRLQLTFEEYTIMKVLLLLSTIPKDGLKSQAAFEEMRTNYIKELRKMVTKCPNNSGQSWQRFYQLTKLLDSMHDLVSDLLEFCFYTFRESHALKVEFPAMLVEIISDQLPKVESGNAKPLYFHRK
Protocol: (§1) CV-1 cells (African green monkey kidney fibroblasts) were cultured in the presence of Dulbecco's Modified Eagle Medium (DMEM) supplemented with 10% charcoal resinstripped fetal bovine serum then transferred to 96-well microtiter plates one day prior to transfection.
(§2) Three to four replicates were used for each sample.
(§3) After 40 hours, the cells were washed with PBS, lysed with a Triton X-100-based buffer and assayed for LUC and β-Gal activities using a luminometer or spectrophotometer, respectively. For each replicate, the normalized response (NR) was calculated as: LUC response/β-Gal rate where β-Gal rate = β-Gal•1x10^-5/β-Gal incubation time.

ER [1] = target: T2, ER (Homo sapiens, UniProt P03372); experiment: Co-transfection assay, ER agonist mode; format: cell-based
T2 construct: expressed in transfected cells; host or cells: CV-1 cells
T2 sequence (P03372 whole entry): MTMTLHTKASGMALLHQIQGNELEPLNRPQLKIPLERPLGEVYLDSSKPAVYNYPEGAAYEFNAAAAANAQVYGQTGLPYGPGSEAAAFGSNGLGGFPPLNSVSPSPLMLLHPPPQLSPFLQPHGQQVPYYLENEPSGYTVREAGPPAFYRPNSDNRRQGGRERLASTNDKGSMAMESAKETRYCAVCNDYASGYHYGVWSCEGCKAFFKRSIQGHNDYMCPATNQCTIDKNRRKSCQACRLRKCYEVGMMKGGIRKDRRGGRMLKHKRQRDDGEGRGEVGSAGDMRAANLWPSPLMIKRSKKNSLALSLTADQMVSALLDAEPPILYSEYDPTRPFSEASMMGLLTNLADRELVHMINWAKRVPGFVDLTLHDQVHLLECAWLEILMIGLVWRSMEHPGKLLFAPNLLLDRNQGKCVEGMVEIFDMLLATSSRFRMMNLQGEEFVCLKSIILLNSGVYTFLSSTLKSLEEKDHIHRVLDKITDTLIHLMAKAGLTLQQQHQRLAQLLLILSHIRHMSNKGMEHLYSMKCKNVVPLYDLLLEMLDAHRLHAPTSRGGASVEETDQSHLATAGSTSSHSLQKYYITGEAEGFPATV
Protocol: as §1, §2, §3

GR = target: T3, GR (Homo sapiens, UniProt P04150); experiment: cell-based
T3 sequence (P04150 1-777): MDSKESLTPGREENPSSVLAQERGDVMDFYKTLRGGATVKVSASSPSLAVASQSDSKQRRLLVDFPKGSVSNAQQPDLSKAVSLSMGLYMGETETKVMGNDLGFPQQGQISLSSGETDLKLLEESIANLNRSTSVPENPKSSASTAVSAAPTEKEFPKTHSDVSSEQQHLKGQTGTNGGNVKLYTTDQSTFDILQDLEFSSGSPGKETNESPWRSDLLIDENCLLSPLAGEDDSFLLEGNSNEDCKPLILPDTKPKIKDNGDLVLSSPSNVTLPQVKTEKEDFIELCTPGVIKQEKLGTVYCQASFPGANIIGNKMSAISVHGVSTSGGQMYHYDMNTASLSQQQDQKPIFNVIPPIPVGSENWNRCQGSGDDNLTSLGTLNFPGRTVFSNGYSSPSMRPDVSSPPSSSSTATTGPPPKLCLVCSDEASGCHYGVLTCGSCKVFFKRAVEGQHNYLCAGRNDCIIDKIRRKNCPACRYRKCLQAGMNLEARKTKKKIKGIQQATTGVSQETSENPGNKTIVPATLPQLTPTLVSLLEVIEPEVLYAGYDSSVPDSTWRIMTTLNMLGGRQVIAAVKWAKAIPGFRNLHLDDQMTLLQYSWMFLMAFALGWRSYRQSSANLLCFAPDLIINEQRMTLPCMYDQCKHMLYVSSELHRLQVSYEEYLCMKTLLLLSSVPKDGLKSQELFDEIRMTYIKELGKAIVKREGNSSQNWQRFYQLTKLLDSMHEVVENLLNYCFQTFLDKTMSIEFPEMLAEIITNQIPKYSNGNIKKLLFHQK
Protocol: as §1, §2, §3

ER [2] = target: T2, ER; experiment: Co-transfection assay, ER antagonist mode; format: cell-based
Protocol: as §1, §2, §3

human AR = target: T4, human AR (Homo sapiens, UniProt P10275); experiment: cell-based; format: binding
T4 construct: expressed in transfected cells; host or cells: CV-1 cells (African green monkey kidney fibroblasts), transient calcium phosphate transfection
T4 sequence (P10275 1-920): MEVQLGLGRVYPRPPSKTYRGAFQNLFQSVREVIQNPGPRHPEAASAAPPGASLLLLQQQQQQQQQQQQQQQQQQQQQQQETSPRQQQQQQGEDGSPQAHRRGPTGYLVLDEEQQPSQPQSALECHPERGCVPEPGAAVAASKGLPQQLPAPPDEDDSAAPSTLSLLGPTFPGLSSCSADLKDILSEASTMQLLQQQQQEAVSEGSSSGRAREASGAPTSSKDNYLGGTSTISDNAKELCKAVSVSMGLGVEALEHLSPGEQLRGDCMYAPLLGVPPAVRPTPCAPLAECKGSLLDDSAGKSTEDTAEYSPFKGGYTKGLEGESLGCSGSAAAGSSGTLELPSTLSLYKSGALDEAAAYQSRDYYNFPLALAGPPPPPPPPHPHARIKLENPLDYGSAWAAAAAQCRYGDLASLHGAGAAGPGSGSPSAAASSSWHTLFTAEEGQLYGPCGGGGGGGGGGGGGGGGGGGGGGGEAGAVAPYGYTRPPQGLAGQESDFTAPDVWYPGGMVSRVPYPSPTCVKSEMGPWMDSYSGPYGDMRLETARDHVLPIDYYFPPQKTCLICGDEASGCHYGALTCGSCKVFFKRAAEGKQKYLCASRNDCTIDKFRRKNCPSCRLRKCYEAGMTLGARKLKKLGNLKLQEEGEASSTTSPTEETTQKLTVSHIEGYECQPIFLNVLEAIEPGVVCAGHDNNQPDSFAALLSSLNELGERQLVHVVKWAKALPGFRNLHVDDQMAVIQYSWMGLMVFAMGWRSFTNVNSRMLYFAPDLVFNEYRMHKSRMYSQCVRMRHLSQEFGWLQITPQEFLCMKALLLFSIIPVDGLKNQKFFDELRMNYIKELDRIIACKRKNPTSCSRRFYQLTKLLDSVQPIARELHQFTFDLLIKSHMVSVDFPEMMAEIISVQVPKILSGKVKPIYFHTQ

SMILES	IC50 (MR) [µM]	EC50 (ER [1]) [µM]	IC50 (GR) [µM]	IC50 (ER [2]) [µM]	Ki (human AR; read-out: AR Binding Ki) [µM]	Ki (human AR) [µM]
CC12CCCN1c1cc3nc(O)cc(C(F)(F)F)c3cc1CC2 (racemic) [Compound 101, (R/S)-6,7,7a,11-Tetrahydro-7a-methyl-4-trifluoromethyl-2-pyridono[5,6-g]pyrrolidino[1,2-a]quinoline]	> 10	> 10	> 10	> 10	0.169	
CC12CCCN1c1cc3[nH]c(=O)c(F)c(C(F)(F)F)c3cc1CC2 (racemic) [Compound 102, (R/S)-3-Fluoro-6,7,7a,11-tetrahydro-7a-methyl-4-trifluoromethyl-2-pyridono[5,6-g]pyrrolidino[1,2-a]quinoline]	> 10	> 10	> 10	> 10		0.078
